For this series the following is noted: pH 7. The source says: A third class of azithromycin sustained-release dosage forms includes the osmotic delivery devices or “osmotic pumps” as they are known in the art. Osmotic pumps comprise a core containing an osmotically effective composition surrounded by a semipermeable membrane. The term “semipermeable” in this context means that water can pass through the membrane, but solutes dissolved in water cannot. In use, when placed in an aqueous environment, the device imbibes water due to the osmotic activity of the core composition. […] The osmotically effective composition includes water-soluble species, which generate a colloidal osmotic pressure, and water-swellable polymers.

With `CC[C@H]1OC(=O)[C@H](C)[C@@H](O[C@H]2C[C@@](C)(OC)[C@@H](O)[C@H](C)O2)[C@H](C)[C@@H](O[C@@H]2O[C@H](C)C[C@H](N(C)C)[C@H]2O)[C@](C)(O)C[C@@H](C)CN(C)[C@H](C)[C@@H](O)[C@]1(C)O` [azithromycin dihydrate], the solubility result is recorded as “much lower”. For the compound Azithromycin fumarate, the “osmotic pressure corresponding to the solubility” value was “about 3 atmospheres” and the solubility entry is “about 100 mg/ml”.
